# Test system: hESCs (CyT203 p36)
# Settings: EDTA 0.075 mM, PBS−/− wash, about 18 hr, activin A 100 ng/ml and Wnt3a 25 ng/ml, RPMI without FBS
# Experimental: Cell cultures and culture conditions were substantially similar to that described above and in D'Amour et al. 2005 and 2006 supra. […] Samples of undifferentiated hESCs were taken prior to the start of the differentiation procedure. Plates were briefly washed with 2 ml of PBS either containing Ca^2+ or Mg^2+ or without Ca^2+ and Mg^2+ (PBS^−/−). In addition, the one plate which was washed with PBS^−/− also received ethylenediamine tetraacetic acid (EDTA) at 0.075 mM to reduce the concentration of Ca^2+ ions present in the media.
smiles,measurement,value
"O=C(O)CN(CCN(CC(=O)O)CC(=O)O)CC(=O)O [EDTA, ethylenediamine tetraacetic acid]",increase in expression for the DE marker (CER),three-fold
same,"increase in gene expression for mesendoderm markers (BRACH, NODAL)",two-fold
